{"source": "patent US6676932B2", "about": "“Ultraviolet absorbent, photostabilizer, ultraviolet ray-absorbing composition, photostabilized composition and external preparation for skin” (Shiseido Co., Ltd., priority 2001, dated 2004)", "key": {"sunburn": {"system": "sunburn", "experiment": "Ultraviolet preventive effect, application test on beach in summer (Test Example 2)", "type": "in vivo, human", "method": "An application test was carried out on beach in summer. Equal volumes of samples were individually coated on back halves of subjects. After exposure to direct daylight, the degree of sunburn was assessed according to the following assessment standards. Each group consists of 10 subjects.\nProminently effective: none or almost no sunburn symptom was observed.\nEffective: light sunburn symptom was observed.\nIneffective: strong sunburn symptom was observed.\n⊚: prominently effective or effective for 80% or more of the subjects.\n◯: prominently effective or effective for 50% or more to less than 80% of the subjects.\nΔ: prominently effective or effective for 30% or more to less than 50% of the subjects.\nx: prominently effective or effective for less than 30% of the subjects.\nThe aqueous phase and the alcohol phase were separately prepared and then mixed together.\nPropylene glycol was added to and dissolved in ion exchange water. The resulting solution was retained at 70° C. under heating (aqueous phase). Other ingredients were mixed […]. The resulting mixture was melted under heating and retained at 70° C. (oil phase). The oil phase was added to the aqueous phase, for preliminary emulsification with a homomixer to homogeneity. Under thorough mixing, subsequently, the mixture was cooled to 30° C."}, "skin [1]": {"system": "skin", "experiment": "Test of skin irritation: continuous application test (Test Example 3 i)", "type": "in vivo, human", "details": "10 wt % ultraviolet absorbent, twice daily for 4 weeks", "method": "(§1) The same samples as in the Test Example 2 were used (at a 10 wt % amount of an ultraviolet absorbent).\nContinuous application test was carried out for 20 healthy subjects per one group. An appropriate amount of each of the samples was coated twice daily for 4 weeks. The effects were assessed according to the following assessment standards.\nMean score was calculated for the determination of the effect on the basis of the following standards.\n(§2) ◯: mean score of more than 0 to less than 1.\n(§3) Δ: mean score of 1 or more to less than 2.\n(§4) x: mean score of 2 or more."}, "skin [2]": {"system": "skin", "experiment": "Test of skin irritation: 24-hour occlusion patch test (Test Example 3 ii)", "type": "in vivo, human", "details": "10 wt % ultraviolet absorbent", "method": "as §1\n20 Healthy male and female volunteers per one group were carried out in a 24-hour occlusion patch test, using a fin chamber on forearm curves. Assessment was done on the basis of the following assessment standards.\nMean score was determined for the assessment on the basis of the following standards.\nas §2, §3, §4"}, "[3]": {"experiment": "Photostability test of aqueous solutions under daylight (Test Example 4)", "type": "physicochemical", "details": "aqueous solution, daylight for 2 weeks (80 MJ)", "method": "Aqueous solutions of the pyridazine derivative of the invention were exposed to daylight for 2 weeks (at a daylight exposure of 80 MJ). Subsequently, the remaining ratio and the change of the appearance were examined to measure the ultraviolet spectra with a spectrophotometer (solvent: water; concentration of 10 ppm and optical path length of 1 cm). The area under ultraviolet spectra curve from 290 nm to 400 nm were determined by integration to compare the area with the area before daylight exposure.\nThe remaining ratio and the change of the area under the ultraviolet spectrum were determined on the basis of the following standards.\n⊚: 95% or more of those before daylight exposure.\n◯: 90% or more to less than 95% of those before daylight exposure.\nΔ: 70% or more to less than 90% of those before daylight exposure.\nx: less than 70% of those before daylight exposure."}, "[4]": {"experiment": "Stability test in combination with inorganic powder-based ultraviolet shielding agent, sunscreen cream (Test Example 5)", "type": "physicochemical", "details": "sunscreen cream with inorganic powders; ultraviolet absorbent 10.0 wt %; 50° C. for 2 months; visual observation", "method": "A sunscreen cream of the following formulation was prepared and stored at 50° C. for 2 months. Under visual observation of the color change, the stability of the inventive pyridazine derivative in combination with inorganic powder-based ultraviolet screening agents commonly in blend as external preparations for skin for the purpose of ultraviolet prevention was examined.\nAfter the ingredient 2 was added to the ingredient 1 to swell the ingredient 2, the ingredients 3 to 11 were mixed with the resulting mixture under heating, for sufficient dispersion and dissolution. While keeping the dispersion at 70° C., a solution of the mixture of the ingredients 12 to 15 was gradually added to the dispersion under thorough emulsification with a homomixer. The resulting mixture was cooled to 30° C. under sufficient stirring to prepare sunscreen creams."}, "[5]": {"experiment": "Dye stabilization effect under daylight exposure (Test Examples 6-91)", "type": "physicochemical", "set-up": "key to Δ E: color difference ΔE in Lab vs. color before daylight exposure; key to Appearance (visual determination): ◯: no change; Δ: almost no change; x: change", "details": "photostabilizer 0.05 wt %, daylight exposure (80 MJ)", "summary_of_the_method": "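Test samples exposed to daylight to 80 MJ; appearance judged visually. Colour measured by spectrophotometer in Lab coordinates, with ΔE calculated relative to pre-exposure values (L1, a1, b1).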"}, "[6]": {"experiment": "Stabilization effect on perfume under daylight exposure (Test Examples 92 to 181)", "type": "physicochemical", "set-up": "key: ◯: no change; Δ: almost no change; x: change", "details": "daylight exposure (80 MJ)", "method": "Each test sample was prepared for observation of the change of the odor of the test sample (determined by perfume coordinator) before and after daylight exposure (80 MJ)."}, "[7]": {"experiment": "Drug stabilization effect under daylight exposure (Test Examples 182 to 211)", "type": "physicochemical", "set-up": "key to Appearance (visual determination): ◯: no change; Δ: almost no change; x: change", "details": "drug salicylic acid 0.1 wt %, photostabilizer 0.05 wt %, daylight exposure (80 MJ)", "method": "For observation of the change of the appearance of each test sample (determination based on visual observation) and the measurement of the remaining ratio by liquid chromatography before and after daylight exposure (80 MJ), the test sample was prepared."}, "[8]": {"details": "dye Blue 1 (Brilliant Blue FCF) 0.0001 wt %"}, "[9]": {"details": "dye Green 3 (Fast Green FCF) 0.001 wt %"}, "[10]": {"details": "dye Red 227 (Acid Fuchsine D) 0.0001 wt %"}, "[11]": {"details": "dye Yellow 5 (Sunset Yellow FCF) 0.001 wt %"}, "[12]": {"details": "dyes Red 227 (Acid Fuchsine D) 0.0001 + Yellow 5 (Sunset Yellow FCF) 0.0001 wt %"}}, "data": [{"smiles": "Oc1nnccc1N1CCCCC1", "note": "[3-Hydroxy-4-piperidinopyridazine, 3-hydroxy-4-piperidinopyridazine]", "values": [{"measurement": "Ultraviolet prevention effect", "setting": "sunburn; cream, blend amount 0.0005 wt %", "result": "Δ (prominently effective or effective for 30% or more to less than 50% of the subjects)"}, {"measurement": "Ultraviolet prevention effect", "setting": "sunburn; cream, blend amount 0.001 wt %", "result": "◯ (prominently effective or effective for 50% or more to less than 80% of the subjects)"}, {"measurement": "Ultraviolet prevention effect", "setting": "sunburn; cream, blend amount 0.01 wt %", "result": "⊚ (prominently effective or effective for 80% or more of the subjects)"}, {"measurement": "Ultraviolet prevention effect", "setting": "sunburn; cream, blend amount 1 wt %", "result": "⊚ (prominently effective or effective for 80% or more of the subjects)"}, {"measurement": "Ultraviolet prevention effect", "setting": "sunburn; cream, blend amount 5 wt %", "result": "⊚ (prominently effective or effective for 80% or more of the subjects)"}, {"measurement": "Ultraviolet prevention effect", "setting": "sunburn; cream, blend amount 10 wt %", "result": "⊚ (prominently effective or effective for 80% or more of the subjects)"}, {"measurement": "Ultraviolet prevention effect", "setting": "sunburn; cream, blend amount 20 wt %", "result": "⊚ (prominently effective or effective for 80% or more of the subjects)"}, {"measurement": "Ultraviolet prevention effect", "setting": "sunburn; lotion, blend amount 0.0005 wt %", "result": "Δ (prominently effective or effective for 30% or more to less than 50% of the subjects)"}, {"measurement": "Ultraviolet prevention effect", "setting": "sunburn; lotion, blend amount 0.001 wt %", "result": "◯ (prominently effective or effective for 50% or more to less than 80% of the subjects)"}, {"measurement": "Ultraviolet prevention effect", "setting": "sunburn; lotion, blend amount 0.01 wt %", "result": "⊚ (prominently effective or effective for 80% or more of the subjects)"}, {"measurement": "Ultraviolet prevention effect", "setting": "sunburn; lotion, blend amount 1 wt %", "result": "⊚ (prominently effective or effective for 80% or more of the subjects)"}, {"measurement": "Ultraviolet prevention effect", "setting": "sunburn; lotion, blend amount 5 wt %", "result": "⊚ (prominently effective or effective for 80% or more of the subjects)"}, {"measurement": "Ultraviolet prevention effect", "setting": "sunburn; lotion, blend amount 10 wt %", "result": "⊚ (prominently effective or effective for 80% or more of the subjects)"}, {"measurement": "Ultraviolet prevention effect", "setting": "sunburn; lotion, blend amount 20 wt %", "result": "⊚ (prominently effective or effective for 80% or more of the subjects)"}, {"measurement": "Determination (skin reaction, continuous application test)", "setting": "skin [1]; cream", "result": "⊚ (mean score of 0)"}, {"measurement": "Determination (skin reaction, continuous application test)", "setting": "skin [1]; lotion", "result": "⊚ (mean score of 0)"}, {"measurement": "Determination (skin reaction, patch test)", "setting": "skin [2]; cream", "result": "⊚ (mean score of 0)"}, {"measurement": "Determination (skin reaction, patch test)", "setting": "skin [2]; lotion", "result": "⊚ (mean score of 0)"}, {"measurement": "Remaining ratio", "setting": "[3]", "result": "⊚ (95% or more of those before daylight exposure)"}, {"measurement": "Change of area under ultraviolet spectrum", "setting": "[3]; 290 nm to 400 nm", "result": "⊚ (95% or more of those before daylight exposure)"}, {"measurement": "Color change", "setting": "[4]", "result": "no"}, {"measurement": "Appearance (visual determination)", "setting": "[5]; [8]", "result": "◯"}, {"measurement": "Δ E", "setting": "[5]; [8]", "result": 1.24}, {"measurement": "Appearance (visual determination)", "setting": "[5]; [9]", "result": "◯"}, {"measurement": "Δ E", "setting": "[5]; [9]", "result": 0.46}, {"measurement": "Appearance (visual determination)", "setting": "[5]; [10]", "result": "◯"}, {"measurement": "Δ E", "setting": "[5]; [10]", "result": 0.54}, {"measurement": "Appearance (visual determination)", "setting": "[5]; [11]", "result": "◯"}, {"measurement": "Δ E", "setting": "[5]; [11]", "result": 0.58}, {"measurement": "Appearance (visual determination)", "setting": "[5]; [12]", "result": "◯"}, {"measurement": "Δ E", "setting": "[5]; [12]", "result": 0.65}, {"measurement": "odor determination", "setting": "[6]; base perfume Rose, photostabilizer 0.05 wt %", "result": "◯"}, {"measurement": "odor determination", "setting": "[6]; base perfume Woody, photostabilizer 0.1 wt %", "result": "◯"}, {"measurement": "odor determination", "setting": "[6]; natural perfume Rose oil, photostabilizer 0.05 wt %", "result": "◯"}, {"measurement": "Appearance (visual determination)", "setting": "[7]", "result": "◯"}, {"measurement": "Remaining ratio (%)", "setting": "[7]; liquid chromatography", "result": 98.4, "unit": "%"}]}]}
